# Results taken from publication PMC6277767, “Broad and Region-Specific Impacts of the Synthetic Cannabinoid CP 55,940 in Adolescent and Adult Female Mouse Brains” (Frontiers in Molecular Neuroscience, 2018).
# System: CD1 female mouse brain lipidome
# Assay: Brain-region lipid levels (HPLC/MS/MS lipidomics) 2 h after single i.p. 3 mg/kg CP 55,940 vs vehicle
# Type: in vivo
# Parameters: N-arachidonoyl phenylalanine level, Mean / N-stearoyl tryptophan level, Mean / N-stearoyl proline level, Mean / N-stearoyl leucine level, Mean / N-stearoyl phenylalanine level, Mean / N-stearoyl serine level, Mean / N-stearoyl methionine level, Mean: unit: moles per gram
# Experimental: The Bloomington Institutional Animal Care and Use Committee of Indiana University reviewed and approved the animal procedures. Female mice from the CD1 strain were utilized to match our study examining THC’s effects on the brain lipidome ([Leishman et al., 2018]). Mice were given a single i.p. injection of either 3 mg/kg CP or 1:1:18 cremophor:ethanol:saline vehicle (please refer to the section “3 mg/kg CP Is Relevant for Synthetic Cannabinoid Abuse and Has Stronger Effects on the Female Mouse Brain Lipidome During Adolescence” for a justification of dose and use of female mice). Three different age groups were given injections: PND 35 and PND 50 adolescents, and adult mice (PND 113). At least eight mice in each age group received CP and at least eight received vehicle. Matching the THC study time course ([Leishman et al., 2018]), mice were sacrificed via rapid decapitation 2 h after injection. Brains were immediately removed and flash-frozen in liquid nitrogen, and then stored at -80°C until dissections were performed. Brains were dissected on an ice-cold dissection plate into the following regions: STR, HIPP, CER, THAL, CTX, HYP, MID, and STEM. These abbreviations for these brain areas will be used exclusively when discussing the results generated by these specific dissections. Each dissected area was immediately placed in liquid nitrogen and then stored at -80°C until used for lipid extraction.
# Tissue extracts were performed as previously described ([Bradshaw et al., 2006]; [Stuart et al., 2013]; [Raboune et al., 2014]; [Leishman et al., 2016a],[b], [2017], [2018]). First, samples were shock frozen in liquid nitrogen, weighed, and transferred to a centrifuge tube. The mass of the largest sample was multiplied by 50 to determine how many milliliters of HPLC-grade methanol (Fisher, Fair Lawn, NJ, United States) to add. Then, samples were spiked with 500 pmol deuterium-labeled NAGly (d8NAGly; Cayman Chemical, Ann Arbor, MI, United States). Samples were placed on ice in darkness for 2 h then individually homogenized and centrifuged at 19,000 × g for 20 min at 20°C. Supernatants were diluted with HPLC water (purified in house) to make a solution of 75% water, 25% supernatant. Lipids were partially purified on C18 solid phase extraction columns (Agilent, Palo Alto, CA, United States). A series of four elutions with 1.5 mL of 60%, 75%, 85%, and 100% methanol were collected ([Stuart et al., 2013]; [Leishman et al., 2016a],[b], [2018]).
# As previously described ([Bradshaw et al., 2006]; [Tan et al., 2006]; [Smoum et al., 2010]; [Stuart et al., 2013]; [Tortoriello et al., 2013]; [Raboune et al., 2014]; [Leishman et al., 2016a],[b], [2017], [2018]), samples were analyzed using an Applied Biosystems API 3000 triple quadrupole mass spectrometer with electrospray ionization (Foster City, CA, United States). Using an Agilent XDB-C18 reversed phase analytical column and optimized mobile phase gradients, 20 μL from each elution were chromatographed. Two Shimadzu 10ADvp pumps (Columbia, MD, United States) provided the pressure for gradient elution. Mobile phase A: 20% methanol, 80% water (v/v) and 1 mM ammonium acetate (Sigma, St. Louis, MO, United States). Mobile phase B: 100% methanol, 1 mM ammonium acetate. Every method run began with 0% mobile phase B, reached 100% mobile phase B flowing at 0.2 mL/min, and gradually returned to 0% mobile phase B.
# This screening library will be referred to as the lipidome when discussing data from this study. HPLC/MS/MS data were analyzed using Analyst software (Applied Biosystems) ([Bradshaw et al., 2006]; [Tan et al., 2006]; [Stuart et al., 2013]; [Tortoriello et al., 2013]; [Raboune et al., 2014]; [Leishman et al., 2016a],[b], [2017], [2018]). Chromatograms (Supplementary Figure 3) were generated by determining the retention time of analytes from the analytical column with a [M-1] or [M+1] parent peak and a fragmentation peak corresponding to the programmed values. […]
# [1] = brainstem, PND 50, 3 mg/kg CP 55,940, one-way ANOVA p .062
# [2] = brainstem, PND35 WT female mice, 3 mg/kg
# [3] = cerebellum, PND 50, 3 mg/kg CP 55,940
# [4] = cerebellum, PND 50 female mice, 3 mg/kg CP 55,940
compound,measurement,setting,value
"CCCCCCC(C)(C)c1ccc([C@@H]2C[C@H](O)CC[C@H]2CCCO)c(O)c1 [CP 55,940]","2-oleoyl glycerol, Magnitude (x Veh level)","brainstem, PND 50, 3 mg/kg CP 55,940, one-way ANOVA p .046",0.86 x Veh level
same,"2-palmitoyl glycerol, Direction (relative to Veh)",[1],↓
same,"2-palmitoyl glycerol, Magnitude (x Veh level)",[1],0.71 x Veh level
same,"N-arachidonoyl GABA level, Mean",[2],8.01E-12
same,"N-arachidonoyl alanine level, Mean",[2],6.76E-12
same,"N-arachidonoyl ethanolamine level, Mean",[2],2.09E-11
same,"N-arachidonoyl glycine level, Mean",[2],4.63E-11
same,"N-arachidonoyl methionine level, Mean",[2],8.72E-13
same,"N-arachidonoyl phenylalanine level, Mean",[2],9.69E-13
same,"N-docosahexaenoyl GABA level, Mean",[2],2.13E-12
same,"N-docosahexaenoyl alanine level, Mean",[2],4.95E-12
same,"N-docosahexaenoyl ethanolamine level, Mean",[2],4.42E-11
same,"N-docosahexaenoyl glycine level, Mean",[2],2.18E-11
same,"N-docosahexaenoyl leucine level, Mean",[2],5.85E-13
same,"N-docosahexaenoyl phenylalanine level, Mean",[2],8.51E-13
same,"N-linoleoyl GABA level, Mean",[2],8E-13
same,"N-linoleoyl alanine level, Mean",[2],1.32E-12
same,"N-linoleoyl ethanolamine level, Mean",[2],3.37E-11
same,"N-linoleoyl glycine level, Mean",[2],5.99E-12
same,"N-linoleoyl leucine level, Mean",[2],3.47E-13
same,"N-oleoyl GABA level, Mean",[2],4.65E-12
same,"N-oleoyl alanine level, Mean",[2],7.64E-12
same,"N-oleoyl ethanolamine level, Mean",[2],2.04E-10
same,"N-oleoyl glycine level, Mean",[2],2.66E-11
same,"N-oleoyl leucine level, Mean",[2],1.35E-12
same,"N-oleoyl methionine level, Mean",[2],1.16E-12
same,"N-oleoyl phenylalanine level, Mean",[2],1.05E-12
same,"N-palmitoyl GABA level, Mean",[2],7.63E-12
same,"N-palmitoyl alanine level, Mean",[2],8.91E-12
same,"N-palmitoyl ethanolamine level, Mean",[2],1.31E-10
same,"N-palmitoyl glycine level, Mean",[2],4.17E-11
same,"N-palmitoyl leucine level, Mean",[2],2.63E-12
same,"N-palmitoyl methionine level, Mean",[2],1.43E-12
same,"N-palmitoyl phenylalanine level, Mean",[2],2.02E-12
same,"N-stearoyl GABA level, Mean",[2],6.98E-12
same,"N-stearoyl alanine level, Mean",[2],1.31E-11
same,"N-stearoyl ethanolamine level, Mean",[2],3.25E-11
same,"N-stearoyl glycine level, Mean",[2],2.18E-11
same,"N-stearoyl leucine level, Mean",[2],8.28E-13
same,"N-stearoyl methionine level, Mean",[2],1.7E-12
same,"N-stearoyl phenylalanine level, Mean",[2],1.48E-12
same,2-linoleoyl glycerol: Direction (relative to Veh),[3],↓
same,2-linoleoyl glycerol: Magnitude (x Veh level),[3],0.65 x Veh level
same,2-oleoyl glycerol: Direction (relative to Veh),[3],↓
same,2-oleoyl glycerol: Magnitude (x Veh level),[3],0.77 x Veh level
same,2-palmitoyl glycerol: Direction (relative to Veh),[3],↓
same,2-palmitoyl glycerol: Magnitude (x Veh level),[3],0.69 x Veh level
same,6-ketoPGF1α: Direction (relative to Veh),[3],↑
same,6-ketoPGF1α: Magnitude (x Veh level),[3],1.33 x Veh level
same,Arachidonic acid: Direction (relative to Veh),[3],↓
same,Arachidonic acid: Magnitude (x Veh level),[3],0.74 x Veh level
same,Linoleic acid: Direction (relative to Veh),[3],↓
same,Linoleic acid: Magnitude (x Veh level),[3],0.73 x Veh level
same,N-arachidonoyl GABA: Direction (relative to Veh),[3],↓
same,N-arachidonoyl GABA: Magnitude (x Veh level),[3],0.75 x Veh level
same,N-arachidonoyl ethanolamine: Direction (relative to Veh),[3],↓
same,N-arachidonoyl ethanolamine: Magnitude (x Veh level),[3],0.81 x Veh level
same,N-arachidonoyl glycine: Direction (relative to Veh),[3],↓
same,N-arachidonoyl glycine: Magnitude (x Veh level),[3],0.68 x Veh level
same,N-arachidonoyl phenylalanine: Direction (relative to Veh),[3],↓
same,N-arachidonoyl phenylalanine: Magnitude (x Veh level),[3],0.60 x Veh level
same,N-arachidonoyl serine: Direction (relative to Veh),[3],↓
same,N-arachidonoyl serine: Magnitude (x Veh level),[3],0.78 x Veh level
same,N-arachidonoyl taurine: Direction (relative to Veh),[3],↓
same,N-arachidonoyl taurine: Magnitude (x Veh level),[3],0.83 x Veh level
same,N-arachidonoyl tyrosine: Direction (relative to Veh),[3],↓
same,N-arachidonoyl tyrosine: Magnitude (x Veh level),[3],0.73 x Veh level
same,N-docosahexaenoyl phenylalanine: Direction (relative to Veh),[3],↓
same,N-docosahexaenoyl phenylalanine: Magnitude (x Veh level),[3],0.77 x Veh level
same,N-linoleoyl ethanolamine: Direction (relative to Veh),[3],↓
same,N-linoleoyl ethanolamine: Magnitude (x Veh level),[3],0.77 x Veh level
same,N-oleoyl GABA: Direction (relative to Veh),[3],↓
same,N-oleoyl GABA: Magnitude (x Veh level),[3],0.76 x Veh level
same,N-oleoyl ethanolamine: Direction (relative to Veh),[3],↓
same,N-oleoyl ethanolamine: Magnitude (x Veh level),[3],0.85 x Veh level
same,N-oleoyl phenylalanine: Direction (relative to Veh),[3],↑
same,N-oleoyl phenylalanine: Magnitude (x Veh level),[3],1.26 x Veh level
same,N-palmitoyl leucine: Direction (relative to Veh),[3],↑
same,N-palmitoyl leucine: Magnitude (x Veh level),[3],1.63 x Veh level
same,N-palmitoyl valine: Direction (relative to Veh),[3],↑
same,N-palmitoyl valine: Magnitude (x Veh level),[3],1.49 x Veh level
same,Oleic acid: Direction (relative to Veh),[3],↓
same,Oleic acid: Magnitude (x Veh level),[3],0.83 x Veh level
same,PGE2: Direction (relative to Veh),[3],↓
same,PGE2: Magnitude (x Veh level),[3],0.68 x Veh level
same,PGF2α: Direction (relative to Veh),[3],↓
same,PGF2α: Magnitude (x Veh level),[3],0.72 x Veh level
same,"2-arachidonoyl glycerol level, Mean",[4],1.99E-10
same,"2-linoleoyl glycerol level, Mean",[4],1.45E-10
same,"2-oleoyl glycerol level, Mean",[4],1.49E-09
same,"2-palmitoyl glycerol level, Mean",[4],1.57E-09
same,"6-ketoPGF1α level, Mean",[4],6.52E-12
same,"11-OH-THC level, Mean",[4],BDL
same,"11-nor-9-carboxyTHC level, Mean",[4],BDL
same,"Arachidonic acid level, Mean",[4],1.8E-10
same,"Cannabidiol level, Mean",[4],BDL
same,"Linoleic acid level, Mean",[4],1.87E-10
same,"N- stearoyl valine level, Mean",[4],9.25E-14
same,"N-arachidonoyl GABA level, Mean",[4],3.92E-12
same,"N-arachidonoyl dopamine level, Mean",[4],BDL
same,"N-arachidonoyl ethanolamine level, Mean",[4],2.25E-11
same,"N-arachidonoyl glycine level, Mean",[4],1.1E-12
